The values below come from patent publication US8937080B2, “Pyrimidine substituted macrocyclic HCV inhibitors” (Medivir AB, priority 2007, dated 2015).

A word on the EC50: it is the midpoint of the concentration-response curve. A lower EC50 goes with greater potency. The Ki is a dissociation constant, usually derived from enzyme kinetics or from competition with a known ligand. A low value points to higher affinity.

In series [1] the test system is HCV replicons (wild type NS3-NS5B regions of HCV type 1b) in Huh-7 luc/neo cells. In words: Replicon assay (Huh-Luc cells, luciferase readout). The format is cell-based. Particulars: Hepatitis C virus, Huh-7, 72 h, incubation of three days, luciferase activity. The text has this:
The compounds of formula (I) were examined for activity in the inhibition of HCV RNA replication in a cellular assay. […] The cellular assay was based on a bicistronic expression construct, as described by Lohmann et al. (1999) Science vol. 285 pp. 110-113 with modifications described by Krieger et al. (2001) Journal of Virology 75: 4614-4624, in a multi-target screening strategy. In essence, the method was as follows.
The assay utilized the stably transfected cell line Huh-7 luc/neo (hereafter referred to as Huh-Luc). This cell line harbors an RNA encoding a bicistronic expression construct comprising the wild type NS3-NS5B regions of HCV type 1b translated from an Internal Ribosome Entry Site (IRES) from encephalomyocarditis virus (EMCV), preceded by a reporter portion (FfL-luciferase), and a selectable marker portion (neo^R, neomycine phosphotransferase). The construct is bordered by 5′ and 3′ NTRs (non-translated regions) from HCV type 1b. Continued culture of the replicon cells in the presence of G418 (neo^R) is dependent on the replication of the HCV RNA. The stably transfected replicon cells that express HCV RNA, which replicates autonomously and to high levels, encoding inter alia luciferase, are used for screening the antiviral compounds.
The replicon cells were plated in 384 well plates in the presence of the test and control compounds which were added in various concentrations. Following an incubation of three days, HCV replication was measured by assaying luciferase activity (using standard luciferase assay substrates and reagents and a Perkin Elmer ViewLux™ ultraHTS microplate imager). Replicon cells in the control cultures have high luciferase expression in the absence of any inhibitor. The inhibitory activity of the compound on luciferase activity was monitored on the Huh-Luc cells, enabling a dose-response curve for each test compound. EC50 values were then calculated, which value represents the amount of the compound required to decrease by 50% the level of detected luciferase activity, or more specifically, the ability of the genetically linked HCV replicon RNA to replicate.
On the technique in general: A replicon is a self-replicating genome or part of one, used to study replication in cells.

The conditions of series [2]: from C=CCCCCN(C)C(=O)C1CC(Oc2cc(-c3ccccc3)nc(-c3ccccc3)n2)CC1C(=O)NC1(C(=O)OCC)CC1C=C; rcm bond; 14-membered ring; Hoveyda-Grubbs II; DCE; 1.66 mM; 16.0 h.
In series [3] the target is HCV NS3/4A protease complexes (full-length hepatitis C NS3 protease enzyme with NS4A cofactor) (Hepatitis C virus genotype 1a, UniProt P27958). In words: Inhibition assay (enzymatic assay, depsipeptide substrate hydrolysis). Particulars: enzyme 1 nM, 25 μM NS4A cofactor, 0.5 μM substrate, 30° C., competitive inhibition model. The series is classed as biochemical. The protocol: The aim of this in vitro assay is to measure the inhibition of HCV NS3/4A protease complexes by the compounds of the present invention. This assay provides an indication of how effective compounds of the present invention would be in inhibiting HCV NS3/4A proteolytic activity.
The inhibition of full-length hepatitis C NS3 protease enzyme was measured essentially as described in Poliakov, 2002 Prot Expression & Purification 25 363 371. Briefly, the hydrolysis of a depsipeptide substrate, Ac-DED(Edans)EEAbuψ[COO]ASK(Dabcyl)-NH2 (AnaSpec, San José, USA), was measured spectrofluorometrically in the presence of a peptide cofactor, KKGSVVIVGRIVLSGK (Åke Engström, Department of Medical Biochemistry and Microbiology, Uppsala University, Sweden). [Landro, 1997 #Biochem 36 9340-9348]. The enzyme (1 nM) was incubated in 50 mM HEPES, pH 7.5, 10 mM DTT, 40% glycerol, 0.1% n-octyl-D-glucoside, with 25 μM NS4A cofactor and inhibitor at 30° C. for 10 min, whereupon the reaction was initiated by addition of 0.5 μM substrate. Inhibitors were dissolved in DMSO, sonicated for 30 sec. and vortexed. The solutions were stored at −20° C. between measurements.
The final concentration of DMSO in the assay sample was adjusted to 3.3%. The rate of hydrolysis was corrected for inner filter effects according to published procedures.
[Liu, 1999 Analytical Biochemistry 267 331-335]. Ki values were estimated by non-linear regression analysis (GraFit, Erithacus Software, Staines, MX, UK), using a model for competitive inhibition and a fixed value for Km (0.15 μM). A minimum of two replicates was performed for all measurements.

Sequence of HCV NS3/4A protease complexes (full-length hepatitis C NS3 protease enzyme with NS4A cofactor) (P27958 1027-1657, other chains not shown): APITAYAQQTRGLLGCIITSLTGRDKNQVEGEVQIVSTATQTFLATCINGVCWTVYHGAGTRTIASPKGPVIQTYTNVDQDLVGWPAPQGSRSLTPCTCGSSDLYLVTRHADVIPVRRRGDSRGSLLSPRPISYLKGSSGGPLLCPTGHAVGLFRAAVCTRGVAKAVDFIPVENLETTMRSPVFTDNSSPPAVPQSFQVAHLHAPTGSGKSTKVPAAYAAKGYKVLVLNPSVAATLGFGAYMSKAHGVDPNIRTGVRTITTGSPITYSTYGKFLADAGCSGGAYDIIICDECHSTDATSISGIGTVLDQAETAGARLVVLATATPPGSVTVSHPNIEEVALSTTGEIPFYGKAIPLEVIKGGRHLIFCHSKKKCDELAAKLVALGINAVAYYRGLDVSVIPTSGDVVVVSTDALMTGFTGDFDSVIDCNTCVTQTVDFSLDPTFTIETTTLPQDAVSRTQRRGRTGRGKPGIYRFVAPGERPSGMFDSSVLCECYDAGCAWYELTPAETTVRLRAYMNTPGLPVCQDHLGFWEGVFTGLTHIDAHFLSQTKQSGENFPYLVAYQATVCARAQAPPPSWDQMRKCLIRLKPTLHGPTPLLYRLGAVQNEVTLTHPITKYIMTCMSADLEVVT

Regarding `COc1cc(O[C@@H]2C[C@H]3C(=O)N[C@]4(C(=O)NS(=O)(=O)c5cccs5)C[C@H]4/C=C\CCCCN(C)C(=O)[C@@H]3C2)nc(-c2ccccc2)n1` [Example 9, Thiophene-2-sulfonic acid [17-(6-methoxy-2-phenylpyrimidin-4-yloxy)-13-methyl-2,14-dioxo-3,13-diaza-tricyclo[13.3.0.0*4,6*]octadec-7-ene-4-carbonyl]-amide], in series [1], the EC50 was 1000 to 10000 nM.
As to `CCOC(=O)C12CC1C=CCCCCN(C)C(=O)C1CC(Oc3cc(-c4ccccc4)nc(-c4ccccc4)n3)CC1C(=O)N2` (stereo not shown), the ring closure, isolated yield in series [2] stood at 76%.
In series [3], `CN1CCCC/C=C\[C@@H]2C[C@@]2(C(=O)NS(=O)(=O)C2CC2)NC(=O)[C@@H]2C[C@@H](Oc3ccnc(N4CCOCC4)n3)C[C@H]2C1=O` [Example 11, Cyclopropanesulfonic acid [13-methyl-17-(2-morpholin-4-yl-pyrimidin-4-yloxy)-2,14-dioxo-3,13-diaza-tricyclo[13.3.0.0*4,6*]octadec-7-ene-4-carbonyl]-amide] showed a Ki of 5 to 99.9 nM. The compound further had an EC50 in series [1] greater than 10000 nM.
The like results for `COc1nc(O[C@@H]2C[C@H]3C(=O)N[C@]4(C(=O)NS(=O)(=O)C5(C)CC5)C[C@H]4/C=C\CCCCN(C)C(=O)[C@@H]3C2)cc(C(C)(C)C)n1` [Example 5, 1-Methyl-cyclopropanesulfonic acid [17-(6-tert-butyl-2-methoxy-pyrimidin-4-yloxy)-13-methyl-2,14-dioxo-3,13-diaza-tricyclo[13.3.0.0*4,6*]octadec-7-ene-4-carbonyl]-amide] were, in that order, 100 to 1000 nM and greater than 10000 nM.
`COc1nc(OC2CC3C(=O)NC4(C(=O)NS(=O)(=O)C5CC5)CC4C=CCCCCN(C)C(=O)N3C2)cc(-c2ccccc2)n1` (stereo not shown) [Example 1, Cyclopropanesulfonic acid [17-(2-methoxy-6-phenyl-pyrimidin-4-yloxy)-13-methyl-2,14-dioxo-3,13,15-triaza-tricyclo[13.3.0.0*4,6*]octadec-7-ene-4-carbonyl]-amide] returned a Ki in series [3] of 0.1 to 4.9 nM. In addition, the EC50 in series [1] lay within 1000 to 10000 nM.
As to `CN1CCCCC=CC2CC2(C(=O)NS(=O)(=O)C2CC2)NC(=O)C2CC(Oc3cc(-c4ccccc4)nc(-c4ccccc4)n3)CC2C1=O` (stereo not shown) [Example 17, Cyclopropanesulfonic acid [17-(2,6-diphenyl-pyrimidin-4-yloxy)-13-methyl-2,14-dioxo-3,13-diaza-tricyclo[13.3.0.0*4,6*]octadec-7-ene-4-carbonyl]-amide], the Ki in series [3] was in the range of 0.1 to 4.9 nM. In series [1], this compound came in with an EC50 of 200 to 990 nM.
For `COc1cccc(-c2cc(O[C@@H]3C[C@H]4C(=O)N[C@]5(C(=O)NS(=O)(=O)C6(C)CC6)C[C@H]5/C=C\CCCCN(C)C(=O)[C@@H]4C3)nc(OC)n2)c1` [Example 25, 1-Methyl-cyclopropanesulfonic acid {17-[2-methoxy-6-(3-methoxy-phenyl)-pyrimidin-4-yloxy]-13-methyl-2,14-dioxo-3,13-diaza-tricyclo[13.3.0.0*4,6*]octadec-7-ene-4-carbonyl}-amide], in series [1], the EC50 was 0.5 to 199 nM.
In series [3], `CC(C)Nc1nccc(O[C@@H]2C[C@H]3C(=O)N[C@]4(C(=O)NS(=O)(=O)C5CC5)C[C@H]4/C=C\CCCCN(C)C(=O)[C@@H]3C2)n1` [Example 12, Cyclopropanesulfonic acid [17-(2-isopropylaminopyrimidin-4-yloxy)-13-methyl-2,14-dioxo-3,13-diaza-tricyclo[13.3.0.0*4,6*]octadec-7-ene-4-carbonyl]-amide] displayed a Ki of 5 to 99.9 nM. In series [1], this compound had an EC50 greater than 10000 nM.
As for `COc1cc(OC2CC3C(=O)NC4(C(=O)NS(=O)(=O)C5(C)CC5)CC4C=CCCCCN(C)C(=O)C3C2)nc(-c2ccccc2)n1` (stereo not shown) [Example 7, 1-Methyl-cyclopropanesulfonic acid [17-(6-methoxy-2-phenylpyrimidin-4-yloxy)-13-methyl-2,14-dioxo-3,13-diaza-tricyclo[13.3.0.0*4,6*]octadec-7-ene-4-carbonyl]-amide], the Ki in series [3] was 0.1 to 4.9 nM. In series [1], this compound returned an EC50 of 0.5 to 199 nM.
On to `COc1cc(OC2CC3C(=O)NC4(C(=O)NS(=O)(=O)C5CC5)CC4C=CCCCCCNC(=O)N3C2)nc(-c2ccccc2)n1` (stereo not shown) [Example 6, Cyclopropanesulfonic acid [18-(6-methoxy-2-phenylpyrimidin-4-yloxy)-2,15-dioxo-3,14,16-triaza-tricyclo[14.3.0.0*4,6*]nonadec-7-ene-4-carbonyl]-amide], for which, in series [3], the Ki was 0.1 to 4.9 nM. This compound also showed an EC50 in series [1] of 0.5 to 199 nM.
In turn, `COc1nc(OC2CC3C(=O)NC4(C(=O)NS(=O)(=O)C5CC5)CC4C=CCCCCCNC(=O)N3C2)cc(-c2ccccc2)n1` (stereo not shown) [Example 2, Cyclopropanesulfonic acid [18-(2-methoxy-6-phenylpyrimidin-4-yloxy)-2,15-dioxo-3,14,16-triaza-tricyclo[14.3.0.0*4,6*]nonadec-7-ene-4-carbonyl]-amide] registered a Ki in series [3] of 0.1 to 4.9 nM. In series [1], this compound returned an EC50 of 1000 to 10000 nM.
Consider `COc1cccc(-c2cc(O[C@@H]3C[C@H]4C(=O)N[C@]5(C(=O)NS(=O)(=O)C6CC6)C[C@H]5/C=C\CCCCN(C)C(=O)[C@@H]4C3)nc(OC)n2)c1` [Example 24, Cyclopropanesulfonic acid {17-[2-methoxy-6-(3-methoxy-phenyl)-pyrimidin-4-yloxy]-13-methyl-2,14-dioxo-3,13-diaza-tricyclo[13.3.0.0*4,6*]octadec-7-ene-4-carbonyl}-amide], for which the EC50 in series [1] lay within 0.5 to 199 nM.
Take `COc1nc(O[C@@H]2C[C@H]3C(=O)N[C@]4(C(=O)NS(=O)(=O)C5(C)CC5)C[C@H]4/C=C\CCCCN(C)C(=O)[C@@H]3C2)cc(-c2ccccc2)n1` [Example 14, 1-Methyl-cyclopropanesulfonic acid [17-(2-methoxy-6-phenyl-pyrimidin-4-yloxy)-13-methyl-2,14-dioxo-3,13-diaza-tricyclo[13.3.0.0*4,6*]octadec-7-ene-4-carbonyl]-amide]: the Ki in series [3] was in the range of 5 to 99.9 nM. Moreover, the EC50 in series [1] lay in the range of 200 to 990 nM.
In the case of `COc1nc(O[C@@H]2C[C@H]3C(=O)N[C@]4(C(=O)NS(=O)(=O)C5(C)CC5)C[C@H]4/C=C\CCCCCNC(=O)N3C2)cc(-c2ccccc2)n1` [Example 4, 1-Methyl-cyclopropanesulfonic acid [18-(2-methoxy-6-phenylpyrimidin-4-yloxy)-2,15-dioxo-3,14,16-triaza-tricyclo[14.3.0.0*4,6*]nonadec-7-ene-4-carbonyl]-amide], in series [3], the Ki fell in the range of 0.1 to 4.9 nM. This compound also returned an EC50 in series [1] of 200 to 990 nM.
Regarding `COc1ccc(-c2cc(OC3CC4C(=O)NC5(C(=O)NS(=O)(=O)C6CC6)CC5C=CCCCCN(C)C(=O)C4C3)nc(OC)n2)cc1` (stereo not shown) [Example 16, Cyclopropanesulfonic acid {17-[2-methoxy-6-(4-methoxy-phenyl)-pyrimidin-4-yloxy]-13-methyl-2,14-dioxo-3,13-diaza-tricyclo[13.3.0.0*4,6*]octadec-7-ene-4-carbonyl}-amide], in series [3], the Ki fell in the range of 0.1 to 4.9 nM. In series [1], this compound gave an EC50 of 200 to 990 nM.
The compound `COc1nc(OC2CC3C(=O)NC4(C(=O)NS(=O)(=O)C5CC5)CC4C=CCCCCN(C)C(=O)C3C2)cc(C(C)(C)C)n1` (stereo not shown) [Example 3, Cyclopropanesulfonic acid [17-(6-tert-butyl-2-methoxypyrimidin-4-yloxy)-13-methyl-2,14-dioxo-3,13-diaza-tricyclo[13.3.0.0*4,6*]octadec-7-ene-4-carbonyl]amide] displayed a Ki in series [3] of 5 to 99.9 nM. Moreover, the EC50 in series [1] is 1000 to 10000 nM.
